Results as given in patent publication US4419352A, “Pyranoquinolinones and analogs thereof” (Fisons Limited, priority 1978, dated 1983).

How the values were obtained:
[1] = sub-cutaneous LD50 in mice; conditions: mouse, in vivo, sc
[2] = test system: human volunteer suffering from specific allergic asthma; test: antigen inhalation provocation test (F E V1.0, percent protection); type: in vivo; conditions: F E V1.0, after drug administration
Experimental: Clinical evaluation of the compounds was carried out using the antigen inhalation provocation test described below:
The human volunteer selected for test purposes suffered from specific allergic asthma. In this subject an asthma attack normally followed the inhalation of an antigen to which they were specifically sensitive. The degree of asthma provoked by this method can be measured by repeated examination of the air way resistance.
The antiallergic activity of a compound is estimated from the difference between the maximum percent F E V1.0 reduction following control and test provocations after drug administration conducted under identical experimental conditions.
The results of the tests are expressed as percent protection according to the formula: [formula]

[3] = sub-cutaneous LD50 in rats; conditions: rat, in vivo, sc
rats = test: food choice (revulsion) test in rats; type: in vivo, rat
[4] = test system: cardiovascular response to isoprenaline; test: cardiovascular response to isoprenaline in the cat; type: in vivo
[5] = test system: cardiovascular response to isoprenaline; test: cardiovascular response to isoprenaline in the rat; type: in vivo
anaesthatised cats = test: blood pressure, heart rate and cardiac output of anaesthetised cats; type: in vivo, cat

CCCc1c2nc(C(=O)[O-])cc(Cl)c2cc2c(=O)cc(C(=O)[O-])oc12.[Na+].[Na+]
LD50 [1]: > 2000 mg/kg
protection against asthma provoked by antigen inhalation [2]: very considerable protection
LD50 [3]: > 2000 mg/kg
revulsion when rats choose between food source containing it and one which does not (rats): does not produce revulsion
alteration of cardiovascular response to isoprenaline [4]: did not alter
alteration of cardiovascular response to isoprenaline [5]: did not alter
effect on blood pressure (anaesthatised cats): without effect
effect on cardiac output (anaesthatised cats): without effect
effect on heart rate (anaesthatised cats): without effect
